Source: ChEMBL document CHEMBL4342413, “Structure-Activity Relationship Studies of a Novel Class of Transmission Blocking Antimalarials Targeting Male Gametes” (J Med Chem, 2020)
Calls of active or inactive are those of the source. The rule behind the calls is not given here.

Experiments:
Plasmodium falciparum [1] = test: Antimalarial activity against Plasmodium falciparum NF54 strain male gametes in human RBC assessed as induction of impairment of exflagellation of male gametes by dual gamete formation assay; format: functional, organism-based
HepG2 [2] = test: Cytotoxicity against human HepG2 cells assessed as reduction in cell viability at 50 uM incubated for 48 hrs by Alamar Blue staining based fluorescence assay; format: functional
Plasmodium falciparum [3] = test: Antimalarial activity against Plasmodium falciparum NF54 strain male gametes in human RBC incubated for 48 hrs by dual gamete formation assay based HTS assay; format: functional, organism-based; conditions: NF54, 48 h
Plasmodium falciparum [4] = test: Antimalarial activity against Plasmodium falciparum infected in mosquitoes assessed as inhibition of oocyst formation at 10 uM added 30 mins before mosquito feed by standard membrane feeding assay; format: functional
HepG2 [5] = test: Cytotoxicity against human HepG2 cells assessed as reduction in cell viability at 10 uM incubated for 48 hrs by Alamar Blue staining based fluorescence assay; conditions: hepg2, 48 h

O=S(=O)(NCC1=CCOc2ccccc21)c1ccc(Br)s1
EC50 (Plasmodium falciparum [1]; Plasmodium falciparum, NF54): > 25000 nM

COc1cccc2c1C(=O)c1c(O)c3c(c(O)c1C2=O)C[C@@](O)(C(=O)CO)C[C@@H]3O[C@H]1C[C@H](N)[C@H](O)[C@H](C)O1
Activity (HepG2 [2]): Active

O=S(=O)(NCC1(O)CCOc2ccccc21)c1ccccc1Br (racemic)
EC50 (Plasmodium falciparum [3]): 530 nM | EC50 (Plasmodium falciparum [1]; Plasmodium falciparum, NF54): 344 to 367 nM

O=S(=O)(NCC1(O)CCOc2ccccc21)c1ccc(Br)s1 (racemic)
EC50 (Plasmodium falciparum [3]): 200 nM | inhibition at 10 µM (Plasmodium falciparum [4]): 99% | EC50 (Plasmodium falciparum [1]): 130 to 292 nM | Activity (HepG2 [5]): Non-Toxic

CC(=O)c1cccc(S(=O)(=O)NCC2(O)CCOc3ccccc32)c1 (racemic)
EC50 (Plasmodium falciparum [1]; Plasmodium falciparum, NF54): > 20000 nM

O=S(=O)(NCC1(O)CCOc2ccccc21)c1ccccc1 (racemic)
EC50 (Plasmodium falciparum [1]; Plasmodium falciparum, NF54): 470 nM

O=S(=O)(NCC1(F)CCOc2ccccc21)c1cccc(Br)c1 (racemic)
EC50 (Plasmodium falciparum [1]; Plasmodium falciparum, NF54): 945 nM

O=S(=O)(NCC1(O)CCOc2cc(F)ccc21)c1cccc(Br)c1 (racemic)
EC50 (Plasmodium falciparum [1]): 79 nM | Activity (HepG2 [5]): Non-Toxic

O=S(=O)(NCC1CCOc2ccccc21)c1ccc(Br)s1 (racemic)
EC50 (Plasmodium falciparum [1]; Plasmodium falciparum, NF54): > 10000 nM

C=CCOc1ccc2c(c1)C(O)(CNS(=O)(=O)c1cccc(Br)c1)CCO2 (racemic)
EC50 (Plasmodium falciparum [1]; Plasmodium falciparum, NF54): > 25000 nM

O=S(=O)(NCC1(O)CCOc2ccc(Br)cc21)c1ccc(Br)s1 (racemic)
EC50 (Plasmodium falciparum [1]; Plasmodium falciparum, NF54): > 1000 nM

O=S(=O)(NCC1(O)CCOc2ccccc21)c1ccccc1Cl (racemic)
EC50 (Plasmodium falciparum [1]; Plasmodium falciparum, NF54): > 1000 nM

O=S(=O)(NCC1(O)CCOc2ccc(F)cc21)c1cccc(Br)c1 (racemic)
EC50 (Plasmodium falciparum [1]; Plasmodium falciparum, NF54): 83 nM

COC1(CNS(=O)(=O)c2cccc(Br)c2)CCOc2ccccc21 (racemic)
EC50 (Plasmodium falciparum [1]): 149 nM | Activity (HepG2 [5]): Non-Toxic

O=S(=O)(NCC1(O)CCOc2ccccc21)c1ccc(Br)cc1 (racemic)
EC50 (Plasmodium falciparum [1]; Plasmodium falciparum, NF54): > 5000 nM

COc1cccc2c1OCCC2(O)CNS(=O)(=O)c1ccc(Br)s1 (racemic)
EC50 (Plasmodium falciparum [1]; Plasmodium falciparum, NF54): > 25000 nM

O=S(=O)(NCC1(O)CCOc2ccc(O)cc21)c1cccc(Br)c1 (racemic)
EC50 (Plasmodium falciparum [1]; Plasmodium falciparum, NF54): > 10000 nM

O=S(=O)(NCC1(O)CCOc2ccc(Br)cc21)c1cccc(Br)c1 (racemic)
EC50 (Plasmodium falciparum [1]; Plasmodium falciparum, NF54): 785 nM

O=S(=O)(NCC1(O)CCOc2ccccc21)c1cccc(Br)c1 (racemic)
EC50 (Plasmodium falciparum [1]): 128 nM | Activity (HepG2 [5]): Non-Toxic

O=S(=O)(NCC1(O)CCOc2ccccc21)c1ccc(Cl)cc1 (racemic)
EC50 (Plasmodium falciparum [1]; Plasmodium falciparum, NF54): > 1000 nM

N#Cc1ccc(S(=O)(=O)NCC2(O)CCOc3ccccc32)cc1 (racemic)
EC50 (Plasmodium falciparum [1]; Plasmodium falciparum, NF54): > 25000 nM

COc1cccc2c1OCCC2(O)CNS(=O)(=O)c1cccc(Br)c1 (racemic)
EC50 (Plasmodium falciparum [1]; Plasmodium falciparum, NF54): > 25000 nM

O=S(=O)(NCC1(O)CCOc2ccccc21)c1cccc(Cl)c1 (racemic)
EC50 (Plasmodium falciparum [1]; Plasmodium falciparum, NF54): 118 nM

O=S(=O)(NCC1(O)CCOc2cc(F)ccc21)c1ccc(Br)s1 (racemic)
EC50 (Plasmodium falciparum [1]; Plasmodium falciparum, NF54): 364 nM

O=S(=O)(NCC1(O)CCOc2ccc(F)cc21)c1ccc(Br)s1 (racemic)
EC50 (Plasmodium falciparum [1]; Plasmodium falciparum, NF54): 196 nM

COC1(CNS(=O)(=O)c2ccc(Br)s2)CCOc2ccccc21 (racemic)
EC50 (Plasmodium falciparum [1]; Plasmodium falciparum, NF54): 354 nM

O=S(=O)(NCC1CCOc2ccccc21)c1cccc(Br)c1 (racemic)
EC50 (Plasmodium falciparum [1]; Plasmodium falciparum, NF54): > 10000 nM

O=S(=O)(NCC1(O)CC(c2ccccc2)Oc2ccccc21)c1cccc(Br)c1 (racemic)
EC50 (Plasmodium falciparum [1]; Plasmodium falciparum, NF54): > 25000 nM

COc1ccc(S(=O)(=O)NCC2(O)CCOc3ccccc32)cc1 (racemic)
EC50 (Plasmodium falciparum [1]; Plasmodium falciparum, NF54): > 25000 nM

O=S(=O)(NCC1(O)CC(c2ccccc2)Oc2ccccc21)c1ccc(Br)s1 (racemic)
EC50 (Plasmodium falciparum [1]; Plasmodium falciparum, NF54): > 25000 nM

O=S(=O)(NCC1(F)CCOc2ccccc21)c1ccc(Br)s1 (racemic)
EC50 (Plasmodium falciparum [1]; Plasmodium falciparum, NF54): > 1000 nM

O=S(=O)(NCC1(O)CCOc2ccccc21)c1sccc1Br (racemic)
EC50 (Plasmodium falciparum [1]; Plasmodium falciparum, NF54): 212 nM

O=S(=O)(NCC1(O)CCOc2ccccc21)c1ccc(Br)s1 (single isomer, unassigned; (+))
EC50 (Plasmodium falciparum [1]): > 1000 nM

O=S(=O)(NCC1(O)CCOc2cc(F)ccc21)c1cccc(Br)c1 (single isomer, unassigned; (+))
EC50 (Plasmodium falciparum [1]): > 1000 nM

COC1(CNS(=O)(=O)c2cccc(Br)c2)CCOc2ccccc21 (single isomer, unassigned; (+))
EC50 (Plasmodium falciparum [1]): > 2000 nM

O=S(=O)(NCC1(O)CCOc2ccccc21)c1cccc(Br)c1 (single isomer, unassigned; (+))
EC50 (Plasmodium falciparum [1]): > 2000 nM

O=S(=O)(NCC1(O)CCOc2ccccc21)c1ccc(Br)s1 (single isomer, unassigned; (-))
EC50 (Plasmodium falciparum [1]): 46 nM

O=S(=O)(NCC1(O)CCOc2cc(F)ccc21)c1cccc(Br)c1 (single isomer, unassigned; (-))
EC50 (Plasmodium falciparum [1]): 51 nM

O=S(=O)(NCC1(O)CCOc2ccccc21)c1cccc(Br)c1 (stereo in doubt; (-)-6)
EC50 (Plasmodium falciparum [1]): 18 nM

COC1(CNS(=O)(=O)c2cccc(Br)c2)CCOc2ccccc21 (stereo in doubt; (-)-74)
EC50 (Plasmodium falciparum [1]): 59 nM
